This is an account of results in patent US7183295B2, “PPAR-activating compound and pharmaceutical composition comprising the compound” (Kowa Co., Ltd., priority 2003, dated 2007).

pEC50: −log10 of the molar value. Where two headings read alike, the source gives them in different places. Some results are limits rather than exact numbers.

What all share (format): cell-based
The target in assay [1] is T1, human PPARδ (137–441aa) ligand binding domain (Homo sapiens, UniProt Q03181).
T1 construct: δ (137–441aa); expressed in transfected cells; host or cells: COS-7
T1 sequence (Q03181 137-441): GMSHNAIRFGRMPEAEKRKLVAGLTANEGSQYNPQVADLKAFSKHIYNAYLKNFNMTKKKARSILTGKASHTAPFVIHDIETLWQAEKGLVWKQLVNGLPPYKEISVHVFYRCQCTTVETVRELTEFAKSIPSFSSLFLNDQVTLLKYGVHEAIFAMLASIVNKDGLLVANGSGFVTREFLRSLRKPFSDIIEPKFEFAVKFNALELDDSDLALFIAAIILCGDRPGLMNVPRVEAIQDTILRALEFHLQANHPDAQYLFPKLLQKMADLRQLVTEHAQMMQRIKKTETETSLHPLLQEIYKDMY
The assay can be described thus: PPAR transfection (Gal4-LBD luciferase reporter) assay, hPPARδ. Conditions: for activation factor, hPPARδ (FIGS. 1 to 5): at 10-fold concentration of EC50 value in activation of hPPARα, ratio to DMSO control; for pEC50: read-out: hPPAR, EC50 δ (agonist activity). On the procedure: (§1) COS-7 cells, which is African green monkey kidney cell line, were used for all transfection assays. Cells were cultured in DMEM medium supplemented with 10% fetal bovine serum, glutamic acid, and an antibiotic under humidified 5% CO2 atmosphere.
(§2) Cells were transfected by lipofectamine reagent with a mixture containing expression plasmid, firefly luciferase reporter plasmid. And a β-galactosidase expression plasmid used as an internal control for transfection efficiency.
(§3) Transiently transfected cells were incubated with DMEM with 0.2% FCS with or without compound. And after 16 hours, luciferase activity and β-galactosidase activity of cell lysate were measured.
(§4) Each compound was dissolved in and diluted with dimethyl sulfoxide (DMSO), and the DMSO concentration of the DMEM medium (containing 0.2% serum) was adjusted to 0.1% upon treatment of cells.
(Reporter assays use an easily measured gene product as a stand-in for the process of interest.)

Assay [2] deals with T2, human PPARγ (182–505aa) ligand binding domain (Homo sapiens, UniProt P37231).
T2 construct: γ(182–505aa); expressed in transfected cells; host or cells: COS-7
T2 sequence (P37231 182-505): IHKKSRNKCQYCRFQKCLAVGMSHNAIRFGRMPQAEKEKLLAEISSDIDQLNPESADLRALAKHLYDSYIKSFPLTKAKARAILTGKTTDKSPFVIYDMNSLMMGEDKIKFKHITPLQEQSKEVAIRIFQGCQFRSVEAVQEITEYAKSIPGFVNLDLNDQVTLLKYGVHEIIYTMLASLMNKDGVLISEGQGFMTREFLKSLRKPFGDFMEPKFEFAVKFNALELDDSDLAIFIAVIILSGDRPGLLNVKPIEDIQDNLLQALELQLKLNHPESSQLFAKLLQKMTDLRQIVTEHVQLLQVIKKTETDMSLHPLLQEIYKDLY
Description: PPAR transfection (Gal4-LBD luciferase reporter) assay, hPPARγ. The note with it: for activation factor, hPPARγ (FIGS. 1 to 5): at 10-fold concentration of EC50 value in activation of hPPARα, ratio to DMSO control; for pEC50: read-out: hPPAR, EC50 γ (agonist activity). On the procedure: as §1, §2, §3, §4

For assay [3], the target named is T3, human PPARα (166–467aa) ligand binding domain (Homo sapiens, UniProt Q07869).
T3 construct: human PPARα (166–467aa); expressed in transfected cells; host or cells: COS-7
T3 sequence (Q07869 166-467): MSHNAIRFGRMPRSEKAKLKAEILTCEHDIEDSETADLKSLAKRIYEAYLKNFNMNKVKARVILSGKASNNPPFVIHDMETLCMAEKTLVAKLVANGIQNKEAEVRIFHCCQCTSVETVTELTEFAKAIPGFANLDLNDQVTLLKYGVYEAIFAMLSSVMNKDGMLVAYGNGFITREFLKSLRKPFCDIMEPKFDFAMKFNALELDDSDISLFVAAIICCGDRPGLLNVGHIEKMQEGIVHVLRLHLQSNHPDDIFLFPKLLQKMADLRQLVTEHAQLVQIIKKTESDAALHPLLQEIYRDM
The assay can be described thus: PPAR transfection (Gal4-LBD luciferase reporter) assay, hPPARα. Conditions: for pEC50: read-out: hPPAR, EC50 α (agonist activity). The protocol:
as §1, §2, §3, §4

Setting [4] is: transfected COS-7 cells, 16 hours, luciferase activity.

As for `CC(C)(Oc1ccc(CCCN(CCc2ccccc2)c2nc3ccccc3s2)cc1)C(=O)O` [Compound A], the “activation factor, hPPARδ (FIGS. 1 to 5)” value in assay [1] was “strongly activate”. Further, the figures for the pEC50 in assay [1] (setting [4]), in assay [2] (setting [4]) and in assay [3] (setting [4]) were 6.40, 6.70 and 7.00, respectively. Moreover, the “activation factor, hPPARγ (FIGS. 1 to 5)” value in assay [2] is “strongly activate”.
Take `CCC(Oc1cccc(CCN(CCCOc2ccccc2)c2nc3ccccc3o2)c1)C(=O)O` (stereo not drawn) [Example 38, 2-[3-[2-[N-(Benzoxazol-2-yl)-N-3-phenoxypropyl]aminoethyl]phenoxy]butyric acid]: the pEC50 in assay [1] (setting [4]) is 5.85; in assay [2] (setting [4]), 5.82; in assay [3] (setting [4]) it was 7.30.
In the same order, the values of `CC(C)(Oc1cccc(CCN(CCOc2ccccc2)c2nc3ccccc3o2)c1)C(=O)O` [Example 78, 2-[3-[2-[N-(Benzoxazol-2-yl)-N-2-phenoxyethyl]aminoethyl]phenoxy]-2-methylpropionic acid] are less than 4.00, 5.96 and 7.52.
The corresponding values for `CCC(Oc1cccc(CN(CCCOc2ccc(F)cc2)c2nc3ccc(F)cc3o2)c1)C(=O)O` (stereo not drawn) [Example 140] are 5.74, 5.89 and 8.15.
Turning to `CC(C)(Oc1ccc(CCCN(CCc2ccccc2)c2nc3ccccc3[nH]2)cc1)C(=O)O` [Compound C, reference compound], in assay [1], the “activation factor, hPPARδ (FIGS. 1 to 5)” value is listed as “activated no hPPAR isoform”. Also, the “activation of hPPARδ isoform” value in assay [1] (transfected COS-7 cells) is listed as “no activation”. The “activation factor, hPPARγ (FIGS. 1 to 5)” value in assay [2] is listed as “activated no hPPAR isoform”. Besides, the “activation of hPPARγ isoform” value in assay [2] (transfected COS-7 cells) is on record as “no activation”. In assay [3] (at EC50 value in activation of hPPARα and at 10 times that concentration, ratio to DMSO control), the “activation factor, hPPARα (FIGS. 1 to 5)” value is “activated no hPPAR isoform”. For the same molecule, the “activation of hPPARα isoform” value in assay [3] (transfected COS-7 cells) is “no activation”.
As to `COc1ccc2oc(N(CCOc3ccc(F)cc3)CCc3cccc(OC(C)C(=O)O)c3)nc2c1` (stereo not drawn) [Example 37, 2-[3-[2-[N-2-(4-Fluorphenoxy)ethyl-N-(5-methoxybenzoxazol-2-yl)]aminoethyl]phenoxy]propionic acid], the pEC50 in assay [1] (setting [4]) is 5.82; in assay [2] (setting [4]), 5.38; in assay [3] (setting [4]), 7.15.
In the same order, the values of `CCC(Oc1cccc(CCN(CCCOc2ccc(OC)cc2)c2nc3cc(F)ccc3o2)c1)C(=O)O` (stereo not drawn) [Example 49, 2-[3-[2-[N-(5-Fluorobenzoxazol-2-yl)-N-3-(4-methoxyphenoxy)propyl]aminoethyl]phenoxy]butyric acid] are 5.82, 5.82 and 7.70.
`CCC(Oc1cccc(CN(CCCOc2ccccc2)c2nc3cc(F)ccc3o2)c1)C(=O)O` (stereo not drawn) [Example 132]: the figures for the pEC50 in assay [1], in assay [2] and in assay [3] were 5.96, 6.00 and 8.52, respectively.
In the case of `CCC(Oc1cccc(CCN(CCCOc2ccc(F)cc2)c2nc3cc(OC)ccc3o2)c1)C(=O)O` (stereo not drawn) [Example 51, 2-[3-[2-[N-3-(4-Fluorophenoxy)propyl-N-(5-methoxybenzoxazol-2-yl)]aminoethyl]phenoxy]butyric acid], the pEC50 in assay [1] (setting [4]) is 5.85; in assay [2] (setting [4]) it was 5.42; in assay [3] (setting [4]), 7.52.
For the molecule `Cc1ccc2oc(N(CCCOc3ccccc3)Cc3cccc(OC(C)C(=O)O)c3)nc2c1` (stereo not drawn) [Example 155], the figures for the pEC50 in assay [1] (setting [4]), in assay [2] (setting [4]) and in assay [3] (setting [4]) were 5.74, less than 5.00 and 7.96, respectively.
As to `CCC(Oc1cccc(CN(CCCOc2ccc(OC)cc2)c2nc3ccccc3o2)c1)C(=O)O` (stereo not drawn) [Example 14, 2-[3-[[N-(Benzoxazol-2-yl)-N-3-(4-methoxyphenoxy)propyl]aminomethyl]phenoxy]butyric acid], the pEC50 in assay [1] (setting [4]) was 5.77; in assay [2] (setting [4]), less than 4.00.
Turning to `CC[C@@H](Oc1cccc(CN(CCCOc2ccc(OC)cc2)c2nc3ccccc3o2)c1)C(=O)O` [Example 85, (R)-2-[[3-[N-(Benzoxazol-2-yl)-N-3-(4-methoxyphenoxy)propyl]aminomethyl]phenoxy]butyric acid], the values for the pEC50 in assay [1] (setting [4]) and in assay [2] (setting [4]) were 5.80 and 5.96, respectively.
